Experiments:
human PPAR α = biological target: T1, human PPAR α (Homo sapiens, UniProt Q07869); assay: In vitro PPAR alpha transactivation assay (GAL4-DBD/PPAR-LBD, luciferase reporter, HEK293); format: cell-based; settings: for In vitro activation PPAR α % max: fold activation relative to maximum activation obtained with Wy14643 (approx. 20 fold corresponded to 100%); for EC50: transfected HEK293 cells, 24 h compound, five concentrations 0.01 to 30 μM, at least three experiments, means, read-out: In vitro activation PPAR α EC50
T1 construct: expressed in transfected cells; host or cells: HEK293
T1 sequence (Q07869 167-468 limits assumed): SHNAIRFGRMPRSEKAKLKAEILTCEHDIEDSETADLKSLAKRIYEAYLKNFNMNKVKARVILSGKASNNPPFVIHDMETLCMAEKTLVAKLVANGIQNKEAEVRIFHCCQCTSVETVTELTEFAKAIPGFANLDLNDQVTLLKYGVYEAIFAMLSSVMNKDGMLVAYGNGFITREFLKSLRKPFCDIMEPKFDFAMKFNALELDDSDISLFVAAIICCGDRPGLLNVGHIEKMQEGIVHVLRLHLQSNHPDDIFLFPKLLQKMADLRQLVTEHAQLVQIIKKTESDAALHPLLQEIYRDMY
Excerpt: (§1) In Vitro PPAR Alpha and PPAR Gamma Activation Activity.
(§2) The PPAR gene transcription activation assays were based on transient transfection into human HEK293 cells of two plasmids encoding a chimeric test protein and a reporter protein respectively. The chimeric test protein was a fusion of the DNA binding domain (DBD) from the yeast GAL4 transcription factor to the ligand binding domain (LBD) of the human PPAR proteins. The PPAR LBD harbored in addition to the ligand binding pocket also the native activation domain (activating function 2=AF2) allowing the fusion protein to function as a PPAR ligand dependent transcription factor. The GAL4 DBD will force the fusion protein to bind only to Gal4 enhancers (of which none existed in HEK293 cells). The reporter plasmid contained a Gal4 enhancer driving the expression of the firefly luciferase protein. After transfection, HEK293 cells expressed the GAL4-DBD-PPAR-LBD fusion protein. The fusion protein will in turn bind to the Gal4 enhancer controlling the luciferase expression, and do nothing in the absence of ligand. Upon addition to the cells of a PPAR ligand, luciferase protein will be produced in amounts corresponding to the activation of the PPAR protein. The amount of luciferase protein is measured by light emission after addition of the appropriate substrate.
(§3) Cell culture and transfection: HEK293 cells were grown in DMEM+10% FCS. Cells were seeded in 96-well plates the day before transfection to give a confluency of 50-80% at transfection. A total of […] DNA containing 0.64 μg pM1α/γLBD, 0.1 μg pCMVβGal, 0.08 μg pGL2Gal4DBD and 0.02 μg p[…] was transfected per well using FuGene transfection reagent according to the manufacturers instructions (Roche). Cells were allowed to express protein for 48 h followed by addition of compound.
Plasmids: Human PPAR α and γ was obtained by PCR amplification using cDNA synthesized by reverse transcription of mRNA from liver and adipose tissue respectively. Amplified cDNAs were cloned into pCR2.1 and sequenced. The ligand binding domain (LBD) of each PPAR isoform was generated by PCR (PPARα: aa 167—C-terminus; PPARγ: aa 165—C-terminus) and fused to the DNA binding domain (DBD) of the yeast transcription factor GAL4 by subcloning fragments in frame into the vector pM1 generating the plasmids pM1αLBD and pM1γLBD. Ensuing fusions were verified by sequencing. The reporter was constructed by inserting an oligonucleotide encoding five repeats of the GAL4 recognition sequence (5×[…](AG)) into the vector pGL2 promotor (Promega) generating the plasmid pGL2(GAL4)5. pCMVβGal was purchased from Clontech and p[…] was purchased from Promega.
(§4) Luciferase assay: Medium including test compound was aspirated and 100 μl PBS incl. 1 mM Mg++ and Ca++ was added to each well. The luciferase assay was performed using the Lu-cLite kit according to the manufacturers instructions (Packard Instruments). Light emission was quantified by counting SPC mode on a Packard Instruments top-counter. To measure β-galactosidase activity 25 μl supernatant from each transfection lysate was transferred to a new microplate. β-galactosidase assays were performed in the microwell plates using a kit from Promega and read in a microplate reader. The β-galactosidase data were used to normalize (transfection efficiency, cell growth etc.) the luciferase data.
(§5) Compounds: All compounds were dissolved in DMSO and diluted 1:1000 upon addition to the cells. Compounds were tested in quadruple in five concentrations ranging form 0.01 to 30 μM. Cells were treated with compound for 24 h followed by luciferase assay. Each compound was tested in three separate experiments. EC50 values were calculated via non-linear regression using GraphPad PRISM 3.02 (GraphPad Software, San Diego, Calif.). The results were expressed as means.

human PPAR γ = biological target: T2, human PPAR γ (Homo sapiens, UniProt P37231); assay: In vitro PPAR gamma transactivation assay (GAL4-DBD/PPAR-LBD, luciferase reporter, HEK293); format: cell-based; settings: for In vitro activation PPAR γ % max: fold activation relative to maximum activation obtained with rosiglitazone (approx. […] fold corresponded to 100%); for EC50: transfected HEK293 cells, 24 h compound, five concentrations 0.01 to 30 μM, at least three experiments, means, read-out: In vitro activation PPAR γ EC50
T2 construct: PPARγ: aa 165—C-terminus); expressed in transfected cells; host or cells: HEK293
T2 sequence (P37231 238-503 limits assumed): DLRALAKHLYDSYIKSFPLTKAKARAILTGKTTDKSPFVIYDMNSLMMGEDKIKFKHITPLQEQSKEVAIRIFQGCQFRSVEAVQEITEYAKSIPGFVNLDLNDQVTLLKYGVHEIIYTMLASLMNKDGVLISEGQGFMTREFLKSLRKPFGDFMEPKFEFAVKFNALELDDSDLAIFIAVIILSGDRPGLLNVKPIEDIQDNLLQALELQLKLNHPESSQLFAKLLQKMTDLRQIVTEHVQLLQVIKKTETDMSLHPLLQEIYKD
Excerpt: as §1, §2, §3
Plasmids: Human PPAR α and γ was obtained by PCR amplification using cDNA synthesized by reverse transcription of mRNA from liver and adipose tissue respectively. Amplified cDNAs were cloned into pCR2.1 and sequenced. The ligand binding domain (LBD) of each PPAR isoform was generated by PCR (PPARα: aa 167—C-terminus; PPARγ: aa 165—C-terminus) and fused to the DNA binding domain (DBD) of the yeast transcription factor GAL4 by subcloning fragments in frame into the vector pM1 generating the plasmids pM1αLBD and pM1γLBD. Ensuing fusions were verified by sequencing.
as §4, §5

Compound: CCO[C@@H](Cc1ccc(OC/C=C(\C)c2ccc(-c3ccc(Br)cc3)cc2)cc1)C(=O)O [Example 4, (E)-(S)-3-{4-[3-(4′-Bromo-biphenyl-4-yl)-but-2-enyloxy]-phenyl}-2-ethoxy-propionic acid]
- In vitro activation PPAR α % max (human PPAR α): 212%
- EC50 (human PPAR α): 3100 nM
- In vitro activation PPAR γ % max (human PPAR γ): 156%
- EC50 (human PPAR γ): 720 nM

Compound: C/C(=C\COc1ccc(CC(OCCCc2ccccc2)C(=O)O)cc1)c1ccc(-c2ccccc2)cc1 (racemic) [Example 140, (E)-(S/R)-3-[4-(3-Biphenyl-4-yl-but-2-enyloxy)-phenyl]-2-(3-phenyl-propoxy)-propionic acid]
- melting point: 115 to 117 °C

Compound: CCO[C@@H](Cc1ccc(OC/C=C(\C)c2ccc(-c3cc(Br)cc(Br)c3)cc2)cc1)C(=O)O [Example 124, (E)-(S)-3-{4-[3-(3′,5′-Dibromo-biphenyl-4-yl)-but-2-enyloxy]-phenyl}-2-ethoxy-propionic acid]
- In vitro activation PPAR α % max (human PPAR α): 102%
- EC50 (human PPAR α): 350 nM
- In vitro activation PPAR γ % max (human PPAR γ): 83%
- EC50 (human PPAR γ): 300 nM

Compound: CCO[C@@H](Cc1ccc(OC/C=C(\C)c2ccc(-c3cc(Cl)ccc3OC)cc2)cc1)C(=O)O [Example 57, (E)-(S)-3-{4-[3-(5′-Chloro-2′-methoxy-biphenyl-4-yl)-but-2-enyloxy]-phenyl}-2-ethoxy-propionic acid]
- In vitro activation PPAR α % max (human PPAR α): 178%
- EC50 (human PPAR α): 380 nM
- In vitro activation PPAR γ % max (human PPAR γ): 110%
- EC50 (human PPAR γ): 700 nM

Compound: CCCCOC(Cc1ccc(OC/C=C(\C)c2ccc(-c3ccccc3)cc2)cc1)C(=O)OCC (racemic) [Example 135, (E)-(S/R)-Ethyl 3-[4-(3-Biphenyl-4-yl-but-2-enyloxy)-phenyl]-2-butoxy-propionate]
- melting point: 62 to 63.5 °C

Compound: CCCCCCOC(Cc1ccc(OC/C=C(\C)c2ccc(-c3ccccc3)cc2)cc1)C(=O)O (racemic) [Example 138, (E)-(S/R)-3-[4-(3-Biphenyl-4-yl-but-2-enyloxy)-phenyl]-2-hexyloxy-propionic acid]
- melting point: 117 to 119 °C

Compound: CCOC(=O)[C@H](Cc1ccc(OC/C=C(\C)c2ccc3c(c2)Cc2ccccc2-3)cc1)OCC [Example 9, (E)-(S)-2-Ethoxy-3-{4-[3-(9H-fluoren-2-yl)-but-2-enyloxy]-phenyl}-propionic acid ethyl ester]
- In vitro activation PPAR α % max (human PPAR α): 234%
- EC50 (human PPAR α): 38 nM
- In vitro activation PPAR γ % max (human PPAR γ): 125%
- EC50 (human PPAR γ): 350 nM

Compound: CCOC(=O)[C@H](Cc1ccc(OC/C=C/c2cc3ccccc3o2)cc1)OCC [Example 27]
- In vitro activation PPAR α % max (human PPAR α): 185%
- EC50 (human PPAR α): 100 nM
- In vitro activation PPAR γ % max (human PPAR γ): 99%
- EC50 (human PPAR γ): 110 nM

Compound: C/C(=C\COc1ccc(CC(OC(C)C)C(=O)O)cc1)c1ccc(-c2ccccc2)cc1 (racemic) [Example 134, (E)-(S/R)-3-[4-(3-Biphenyl-4-yl-but-2-enyloxy)-phenyl]-2-isopropoxy-propionic acid]
- In vitro activation PPAR α % max (human PPAR α): 122%
- EC50 (human PPAR α): 2900 nM
- In vitro activation PPAR γ % max (human PPAR γ): 155%
- EC50 (human PPAR γ): 890 nM
- melting point: 125 to 127.5 °C

Compound: CCOC(=O)C(Cc1ccc(OC/C=C(\C)c2ccc(-c3ccccc3)cc2)cc1)OC(C)C (racemic) [Example 133, (E)-(S/R)-Ethyl 3-[4-(3-Biphenyl-4-yl-but-2-enyloxy)-phenyl]-2-isopropoxy-propionate]
- melting point: 79 to 81 °C

Compound: CCOC(=O)[C@H](Cc1ccc(OC/C=C(\C)c2ccc(-c3ccc(C(C)C)cc3)cc2)cc1)OCC [Example 103, (E)-(S)-Ethyl 2-Ethoxy-3-{4-[3-(4′-isopropyl-biphenyl-4-yl)-but-2-enyloxy]-phenyl}-propionate]
- melting point: 70 to 73 °C

— patent publication US6867218B2, “Compounds, their preparation and use” (Novo Nordisk A/S, priority 2000, dated 2005)
